Laboratory results from the PolyMetriX glass transition set.
± gives the standard deviation of the reports.

glass transition temperature [°C] | SMILES
273.00 | *c1ccc(Oc2ccc(-c3c(-c4ccccc4)c(-c4ccc(-c5nc6ccccc6c(*)c5-c5ccccc5)cc4)nc4ccccc34)cc2)cc1 (repeat unit)
55.80 | */C=C/C1CC(*)C(C(=O)OCCCCCCOc2ccc(-c3ccc(C#N)cc3)cc2)C1C(=O)OCCCCCCOc1ccc(-c2ccc(C#N)cc2)cc1 (repeat unit)
265.00 | *Nc1ccc(Cc2ccc(NC(=O)c3cccc(C(*)=O)c3)cc2)cc1 (repeat unit)
121.00 | *OC(=O)C1CCC(C(=O)OC2COC3C(*)COC23)CC1 (repeat unit)
148.00 | *CCC(C)(C)CC(C)CNC(=O)c1ccc(C(=O)N*)cc1 (repeat unit)
75.50 | *Oc1ccc(CC(NC(=O)Cc2ccc(OC(=O)CCC(*)=O)cc2)C(=O)OCC)cc1 (repeat unit)
215.00 | *CCCCCCc1ccc(-c2c(-c3ccccc3)cc(-c3cccc(-c4cc(-c5ccccc5)c(-c5ccc(*)cc5)c(-c5ccccc5)c4-c4ccccc4)c3)c(-c3ccccc3)c2-c2ccccc2)cc1 (repeat unit)
100.00 | *CC(O)COc1c(Cl)cc(C(C)(C)c2cc(Cl)c(OCC(O)COc3ccc(C(C)(C)c4ccc(O*)cc4)cc3)c(Cl)c2)cc1Cl (repeat unit)
69.00 | *CC(*)(C)C(=O)OCCCCOc1ccc(OC(=O)c2ccc(OC)c(Br)c2)cc1 (repeat unit)
410.00 | *c1cccc(-c2nc3cc(-c4ccc5[nH]c(*)nc5c4)ccc3[nH]2)c1 (repeat unit)
215.00 | *c1cccc(N/C=C/C(=O)c2cccc(C(=O)/C=C/Nc3cccc(S(*)(=O)=O)c3)c2)c1 (repeat unit)
222.00 | *C(=O)c1ccc2c(c1)C(=O)N(c1ccc(Oc3ccc(C(=O)c4cccc(C(=O)c5ccc(Oc6ccc(N7C(=O)c8ccc(*)cc8C7=O)cc6)cc5)c4)cc3)cc1)C2=O (repeat unit)
48.00 | *Nc1ccc(Cc2ccc(NC(=O)NCCCCCCCCCCCCCCCCCCNC(*)=O)cc2)cc1 (repeat unit)
152.50 | *CC(O)COc1c(C)cc(S(=O)(=O)c2cc(C)c(O*)c(C)c2)cc1C (repeat unit)
180.00 | *CC(*)c1ccc([Si](C)(C)OC(C)C)cc1 (repeat unit)
71.00 | *CCCCCCOC(=O)Nc1ccc(Cc2ccc(NC(=O)O*)cc2)cc1 (repeat unit)
91.00 | *CC(*)(C)C(=O)Oc1ccc(C(C)(C)C)cc1 (repeat unit)
89.00 | *c1cc(CCCCCC)c(-c2ccc3c4ccc(-c5sc(-c6sc(*)c7nc(CC)c(CC)nc67)cc5CCCCCC)cc4n(CCCCCCCCCCCC)c3c2)s1 (repeat unit)
10.00 | *CC(O)COC(=O)CCCCCCCCCCC(=O)OCC(O)COc1ccc(O*)cc1 (repeat unit)

glass transition temperature [°C] | SMILES
290.00 | *c1ccc2oc3ccc(S(=O)(=O)c4ccc(Oc5ccc(S(*)(=O)=O)cc5)cc4)cc3c2c1 (repeat unit)
147.00 | *c1ccc(Oc2ccc(C(c3ccc(Oc4ccc(N5C(=O)CC(=O)N(*)C5=S)cc4)cc3)(C(F)(F)F)C(F)(F)F)cc2)cc1 (repeat unit)
226.50 ± 12 | *c1cccc(Oc2ccc(C(c3ccc(Oc4cccc(-n5c(=O)c6cc7c(=O)n(*)c(=O)c7cc6c5=O)c4)cc3)(C(F)(F)F)C(F)(F)F)cc2)c1 (repeat unit)
132.00 | *CC(*)(CC(=O)Oc1ccccc1)C(=O)Oc1ccccc1 (repeat unit)
87.00 | */C=C/C1CC(*)C2C(=O)N(CCCCCC)C(=O)C12 (repeat unit)
272.00 | *c1ccc([Si](c2ccccc2)(c2ccccc2)c2ccc(-c3nnc(-c4ccc(-c5nnc(*)o5)nc4)o3)cc2)cc1 (repeat unit)
-10.00 | *c1cc(-c2sc(-c3cc(CCCCCCCCCCCCCC)c(*)s3)cc2CCCCCCCCCCCCCC)c2cccccc1-2 (repeat unit)
54.00 | *c1ccc(-c2ccc(-c3ccc(-c4ccc(-c5ccc(*)n5CCCCCCCCCCCC)s4)s3)s2)s1 (repeat unit)
248.00 | *c1ccc(-c2cc(-c3ccc(-c4ccccc4)cc3)cc(-c3ccc(N4C(=O)c5ccc(NC(=O)Nc6cccc(NC(=O)Nc7ccc8c(c7)C(=O)N(*)C8=O)n6)cc5C4=O)cc3)n2)cc1 (repeat unit)
15.00 | *CC(*)C(=O)OCCCCCCCCCCCCOC(=O)c1ccc(OC(=O)c2ccc(C#N)cc2)cc1 (repeat unit)
282.00 | *C(=O)Nc1ccc(Oc2ccc(NC(=O)c3ccc4c(c3)C(=O)N(c3ccc(Oc5ccc(N6C(=O)c7ccc(*)cc7C6=O)cc5)cc3)C4=O)cc2)cc1 (repeat unit)
45.00 | *Oc1ccccc1C(=O)OC(=O)c1ccccc1OC(=O)C(C)C(C)C(*)=O (repeat unit)
350.00 | *c1cc(C(c2ccc(O)c(-n3c(=O)c4cc5c(=O)n(*)c(=O)c5cc4c3=O)c2)(C(F)(F)F)C(F)(F)F)ccc1O (repeat unit)
107.00 | *Oc1ccc(Sc2ccc(OC(=O)OC3C(C)(C)C(OC(*)=O)C3(C)C)cc2)cc1 (repeat unit)
372.00 | *c1ccc(-c2ccc(N3C(=O)c4ccc(-c5cccc6c5C(=O)N(*)C6=O)cc4C3=O)cc2C)c(C)c1 (repeat unit)
89.00 | *Oc1ccc(Oc2cccc(*)n2)c(C)c1 (repeat unit)
143.00 | *c1cc(C)c(/N=C/c2ccc(OCc3ccccc3COc3ccc(/C=N/c4cc(C)c(N5C(=O)c6ccc7c8ccc9c%10c(ccc(c%11ccc(c6c7%11)C5=O)c%108)C(=O)N(*)C9=O)cc4C)cc3OC)c(OC)c2)cc1C (repeat unit)
-26.00 | *CCCCCCCC(=O)OCC1(C)COC(*)OC1 (repeat unit)
152.00 | *CC(F)(F)C1(F)C(*)CC(O)(C(F)(F)F)C1(F)F (repeat unit)

glass transition temperature [°C] | SMILES
160.00 | *Oc1ccc(NC(=O)c2ccc(C(=O)Nc3ccc(Oc4ccc(C(=O)c5ccc(*)cc5)cc4)cc3)cc2)cc1 (repeat unit)
330.00 | *c1ccc2c(c1)C(=O)N(c1cc(C(c3ccc(O)c(N4C(=O)c5ccc(C(*)(C(F)(F)F)C(F)(F)F)cc5C4=O)c3)(C(F)(F)F)C(F)(F)F)ccc1O)C2=O (repeat unit)
142.00 | *c1ccc(Oc2ccc(Sc3ccc(Oc4ccc(-c5ccc(*)s5)cc4C(F)(F)F)cc3)cc2)c(C(F)(F)F)c1 (repeat unit)
120.00 | *Oc1ccc(C(=O)c2ccc(C(=O)c3ccc(Oc4ccc(Cc5ccc(*)cc5)cc4)cc3)cc2)cc1 (repeat unit)
269.00 | *c1cccc(N2C(=O)c3cccc(Oc4c(C)cc(Cc5cc(C)c(Oc6cccc7c6C(=O)N(*)C7=O)c(C)c5)cc4C)c3C2=O)c1 (repeat unit)
342.00 | *c1ccc(-c2cnc3ccc(S(=O)(=O)c4ccc5ncc(*)nc5c4)cc3n2)cc1 (repeat unit)
119.00 | *CC(O)COc1ccc(C(C)(C)c2ccc(OCC(O)COc3cccc(NC(=O)Cc4cccc(CC(=O)Nc5cccc(O*)c5)c4)c3)cc2)cc1 (repeat unit)
-5.00 | *O[Si](*)(C)CCCCCCOc1ccc(C(=O)Oc2ccc(C(=O)Oc3ccc(C=C(C(=O)OCCCCCCCCC)C(=O)OCCCCCCCCC)cc3)cc2)cc1 (repeat unit)
138.00 | *c1cccc(OCCCCCCCCOc2cccc(N3C(=O)c4ccc(-c5ccc6c(c5)C(=O)N(*)C6=O)cc4C3=O)c2)c1 (repeat unit)
82.00 | *CC(*)(C)C(=O)OCc1c(F)cccc1F (repeat unit)
138.00 | *Oc1ccc(C(C#N)(c2ccccc2)c2ccc(OC(*)=O)cc2)cc1 (repeat unit)
399.8 | *c1c(C)cc(C)c(-n2c(=O)c3cc4c(=O)n(*)c(=O)c4cc3c2=O)c1C (repeat unit)
247.00 | *c1cccc(C(=O)Nc2cccc(S(=O)(=O)c3cccc(NC(=O)c4cccc(N5C(=O)c6ccc(-c7ccc8c(c7)C(=O)N(*)C8=O)cc6C5=O)c4)c3)c2)c1 (repeat unit)
277.00 | *c1ccc2c(c1)C(=O)N(c1ccc(Oc3cc(C(C)(C)C)c(Oc4ccc(N5C(=O)c6ccc(C(*)(C(F)(F)F)C(F)(F)F)cc6C5=O)cc4)cc3C(C)(C)C)cc1)C2=O (repeat unit)
-46.50 | *C(=O)CCCCCCCCC(=O)NC1CCCCN(*)C1 (repeat unit)
158.00 | *c1ccc2cc3cc(-c4sc(-c5cc(CCCCCCCCCCCC)c(*)s5)cc4CCCCCCCCCCCC)ccc3cc2c1 (repeat unit)
275.40 | *Oc1ccc(S(=O)(=O)c2ccc(Oc3c(C)cc(C(C)(C)c4cc(C)c(*)c(C)c4Br)c(Br)c3C)cc2)cc1 (repeat unit)
94.30 | *OC1CCC(OC(=O)c2ccc(C(*)=O)cc2)CC1 (repeat unit)
213.00 | *Oc1ccc(C(=O)Nc2cc(C(c3ccc(C)c(NC(=O)c4ccc(OC(=O)c5ccc(C(*)=O)cc5)cc4)c3)(C(F)(F)F)C(F)(F)F)ccc2C)cc1 (repeat unit)

SMILES | glass transition temperature [°C]
*CC(*)OC(C)CC (repeat unit) [Poly(vinyl sec-butyl ether) ] | -22 ± 3
*CC(CCl)(CCl)CO* (repeat unit) [Poly(oxy-2,2-dichloromethyltrimethylene) ] | -8 ± 10
*CC(*)OC(=O)c1cccc(Br)c1 (repeat unit) | 57.50
*CC(*)(F)C(=O)OC (repeat unit) | 142.00
*CCN(*)C(=O)CCCCCC (repeat unit) | 10.00
*CCCCCCCCCCCCNC(=O)CCP(C)(=O)CCC(=O)N* (repeat unit) | 44.00
*CC1CCC(COP(=O)(/N=N/c2ccc(Oc3ccc(/N=N/P(=O)(O*)OC)cc3)cc2)OC)CC1 (repeat unit) | 50.00
